From ChEMBL document CHEMBL4428076 (J Med Chem, 2016)
Activity calls are given as the source filed them. The calls are words filed in the database; no cut-off is given here.

Experiments:
Mus musculus [1] = assay: Ratio of ED50 for sc dosed CD-1 mouse administered twice daily at dosing intervals of 12 hrs for 29 days to ED50 for sc dosed CD-1 mouse measured 15 mins post dose; type: functional
Mus musculus [2] = assay: Potency index, ratio of morphine ED50 to compound ED50 in sc dosed CD-1 mouse; type: functional
[3] = target: 5-hydroxytryptamine receptor 7 (Homo sapiens) (UniProt P34969); assay: Displacement of [3H]LSD from recombinant human 5HT7A receptor expressed in HEK cell membrane after 90 mins by microbeta scintillation counting method
Mus musculus [4] = assay: Antinociceptive activity in sc dosed CD-1 mouse assessed as increase in reaction time administered twice daily at dosing intervals of 12 hrs for 29 days by radiant heat tail flick assay; type: functional; details: CD-1, sc
[5] = Toxicity in C57BL/6 mouse assessed as decrease in respiratory rate at 3 mg/kg, sc measured at 15 to 35 mins post dose relative to control; type: organism-based; set-up: scale not given: the % may be the effect or the level left; details: in vivo
Mu-type opioid receptor [6] = target: Mu-type opioid receptor (Mus musculus, UniProt P42866); assay: Agonist activity at mouse mu opioid receptor-1 expressed in CHO cell membranes assessed as [35S]GTPgammaS binding incubated for 60 mins by scintillation spectroscopic analysis; type: functional
Mus musculus [7] = assay: Antinociceptive activity in CD-1 mouse assessed as increase in reaction time at 1.5 mg/kg, sc measured 15 mins post dose in presence of adrenergic alpha2 receptor antagonist yohimbine by radiant heat tail flick assay; type: functional, organism-based
Mus musculus [8] = assay: Antinociceptive activity in CD-1 mouse assessed as increase in reaction time at 1.5 mg/kg, sc measured 15 mins post dose in presence of opioid antagonist naloxone by radiant heat tail flick assay; type: functional, organism-based
Mus musculus [9] = assay: Antinociceptive activity in CD-1 mouse assessed as increase in reaction time at 1.5 mg/kg, sc administered on day 6 after MOR1-exon1 antisense oligodeoxynucleotide injection on day 1, 3 and 5 by radiant heat tail flick assay; type: functional, organism-based
Mus musculus [10] = assay: Antinociceptive activity in sc dosed CD-1 mouse assessed as increase in reaction time administered twice daily at dosing intervals of 12 hrs for 5 days by radiant heat tail flick assay; type: functional; details: CD-1, sc
Mus musculus [11] = assay: Antinociceptive activity in po dosed CD-1 mouse assessed as increase in reaction time administered through gavage measured 15 mins post dose by radiant heat tail flick assay; type: functional; details: CD-1, po, 0.25 h
Mus musculus [12] = assay: Antinociceptive activity in sc dosed CD-1 mouse assessed as increase in reaction time administered four times per day for 5 days by radiant heat tail flick assay; type: functional; details: CD-1, sc, 120 h
Mu-type opioid receptor [13] = target: T1, Mu-type opioid receptor (Homo sapiens, UniProt P35372); assay: Inhibition of DAMGO-induced beta-arrestin-2 recruitment at mu opioid receptor-1 (unknown origin) expressed in CHO cells preincubated for 30 mins followed by DAMGO addition measured after 90 mins by beta-galactosidase complementation assay; type: cell-based
[14] = Toxicity in CD-1 mouse assessed as physical dependence by measuring number of jumps at 1.5 mg/kg, sc bid for 5 days followed by opioid antagonist naloxone injection on day 5 measured for 15 mins post last dose; type: organism-based; details: in vivo, 0.25 h
[15] = Toxicity in CD-1 mouse assessed as inhibition of gastrointestinal transit by measuring distance traveled by charcoal at 1.5 mg/kg, sc followed by charcoal meal administration measured after 30 mins; type: organism-based; details: in vivo, 0.5 h
[16] = target: T2, Alpha-2C adrenergic receptor (Homo sapiens) (UniProt P18825); assay: Displacement of [3H]rauwolscine from recombinant human adrenergic alpha2C receptor expressed in MDCK cell membrane after 90 mins by microbeta scintillation counting method
T2 sequence (whole entry): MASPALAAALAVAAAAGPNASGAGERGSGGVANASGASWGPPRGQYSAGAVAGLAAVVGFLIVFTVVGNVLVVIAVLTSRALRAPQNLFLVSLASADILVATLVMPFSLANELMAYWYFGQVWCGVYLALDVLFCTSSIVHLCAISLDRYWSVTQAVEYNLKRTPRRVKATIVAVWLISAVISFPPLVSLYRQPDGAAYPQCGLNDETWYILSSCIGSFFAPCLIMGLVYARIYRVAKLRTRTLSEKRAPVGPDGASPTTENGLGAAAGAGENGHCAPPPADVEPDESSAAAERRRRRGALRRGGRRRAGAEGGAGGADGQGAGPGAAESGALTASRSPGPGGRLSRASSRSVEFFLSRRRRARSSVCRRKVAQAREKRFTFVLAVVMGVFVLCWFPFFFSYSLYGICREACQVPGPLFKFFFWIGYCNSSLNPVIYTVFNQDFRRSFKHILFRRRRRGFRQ

[17] = target: T3, Delta-type opioid receptor (Mus musculus, UniProt P32300); assay: Displacement of [125I]-IBNtxA from mouse delta opioid receptor-1 expressed in CHO cell membranes incubated for 90 mins
Mus musculus [18] = assay: Antinociceptive activity in sc dosed CD-1 mouse assessed as increase in reaction time measured 15 mins post dose by radiant heat tail flick assay; type: functional; details: CD-1, sc, 0.25 h
[19] = Toxicity in CD-1 mouse assessed as time for drug tolerance at 1.5 mg/kg, sc bid at dosing intervals of 12 hrs; type: organism-based; details: in vivo
[20] = target: T3, Delta-type opioid receptor; assay: Antagonist activity at mouse delta opioid receptor-1 expressed in CHO cell membranes assessed as inhibition of DPDPE-induced [35S]GTPgammaS binding incubated for 60 mins by scintillation spectroscopic analysis; type: functional
Mus musculus [21] = assay: Antinociceptive activity in icv dosed CD-1 mouse assessed as increase in reaction time measured 15 mins post dose by radiant heat tail flick assay; type: functional
Mus musculus [22] = assay: Ratio of ED50 for sc dosed CD-1 mouse administered twice daily at dosing intervals of 12 hrs for 5 days to ED50 for sc dosed CD-1 mouse measured 15 mins post dose; type: functional
[23] = target: Mu-type opioid receptor (Mus musculus) (UniProt P42866); assay: Agonist activity at mouse mu opioid receptor-1 expressed in CHO cell membranes assessed as [35S]GTPgammaS binding incubated for 60 mins by scintillation spectroscopic analysis relative to DAMGO; type: functional
Mus musculus [24] = assay: Antinociceptive activity in 129Sv6 mouse assessed as increase in reaction time at 0.1 to 10 mg/kg, sc measured 15 mins post dose by radiant heat tail flick assay; type: functional, organism-based
Mus musculus [25] = assay: Antinociceptive activity in sc dosed CD-1 mouse assessed as increase in latency latency to respond with hind paw lick or shake/flutter measured 15 mins post dose by hot plate test; type: functional; details: CD-1, sc, 0.25 h
Mus musculus [26] = assay: Potency index, ratio of morphine ED50 to compound ED50 in icv dosed CD-1 mouse; type: functional
Mu-type opioid receptor [27] = target: T1, Mu-type opioid receptor; assay: Activation of mu opioid receptor-1 (unknown origin) expressed in CHO cells assessed as beta-arrestin-2 recruitment at 10 uM after 90 mins by beta-galactosidase complementation assay; type: cell-based; details: 1.5 h
Mus musculus [28] = assay: Antinociceptive activity in CD-1 mouse assessed as time required for peak effect at 1.5 mg/kg, sc by radiant heat tail flick assay; type: functional
Mus musculus [29] = assay: Antinociceptive activity in CD-1 mouse assessed as increase in reaction time at 1.5 mg/kg, sc measured 15 mins post dose in presence of mu opioid receptor antagonist beta-FNA by radiant heat tail flick assay; type: functional, organism-based
[30] = Toxicity in C57BL/6 mouse assessed as conditioned place preference at 1.3 to 3.2 mg/kg/day, ip measured for 30 mins post dose; type: organism-based; details: in vivo, 0.5 h

T1 sequence (P35372 whole entry): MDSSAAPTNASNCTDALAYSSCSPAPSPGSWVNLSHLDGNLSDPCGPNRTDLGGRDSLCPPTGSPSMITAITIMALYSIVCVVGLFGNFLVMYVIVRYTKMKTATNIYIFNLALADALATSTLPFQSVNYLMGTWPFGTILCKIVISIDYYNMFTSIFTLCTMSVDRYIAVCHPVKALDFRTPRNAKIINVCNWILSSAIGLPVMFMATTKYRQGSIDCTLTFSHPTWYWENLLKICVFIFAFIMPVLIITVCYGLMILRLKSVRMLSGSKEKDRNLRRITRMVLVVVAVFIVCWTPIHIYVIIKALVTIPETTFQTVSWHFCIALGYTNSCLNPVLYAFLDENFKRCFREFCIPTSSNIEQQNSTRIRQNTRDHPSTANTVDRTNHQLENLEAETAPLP
T3 sequence (P32300 whole entry): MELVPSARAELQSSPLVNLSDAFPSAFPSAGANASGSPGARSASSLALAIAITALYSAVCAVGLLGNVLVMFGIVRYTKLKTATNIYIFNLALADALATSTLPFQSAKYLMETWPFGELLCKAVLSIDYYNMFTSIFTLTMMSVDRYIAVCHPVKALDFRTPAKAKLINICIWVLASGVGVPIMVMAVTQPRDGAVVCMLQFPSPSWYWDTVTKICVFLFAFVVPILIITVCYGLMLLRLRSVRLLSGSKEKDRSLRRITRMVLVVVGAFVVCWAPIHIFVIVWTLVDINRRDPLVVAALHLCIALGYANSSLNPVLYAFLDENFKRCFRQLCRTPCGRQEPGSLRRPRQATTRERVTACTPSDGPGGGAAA
5-hydroxytryptamine receptor 7 (Homo sapiens), sequence (P34969 whole entry): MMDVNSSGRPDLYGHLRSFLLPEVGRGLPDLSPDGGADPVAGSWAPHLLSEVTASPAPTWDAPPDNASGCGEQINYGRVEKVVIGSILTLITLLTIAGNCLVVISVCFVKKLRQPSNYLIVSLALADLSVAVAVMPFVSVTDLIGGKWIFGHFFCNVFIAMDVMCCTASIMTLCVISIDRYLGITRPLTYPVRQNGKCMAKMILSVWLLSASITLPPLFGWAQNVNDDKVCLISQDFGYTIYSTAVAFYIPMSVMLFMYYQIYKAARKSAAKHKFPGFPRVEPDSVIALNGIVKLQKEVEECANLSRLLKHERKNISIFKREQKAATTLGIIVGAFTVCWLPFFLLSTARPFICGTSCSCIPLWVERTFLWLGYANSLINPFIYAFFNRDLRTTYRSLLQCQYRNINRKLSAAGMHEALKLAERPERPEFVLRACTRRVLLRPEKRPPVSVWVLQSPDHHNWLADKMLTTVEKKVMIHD
Mu-type opioid receptor (Mus musculus, UniProt P42866), sequence (P42866 whole entry): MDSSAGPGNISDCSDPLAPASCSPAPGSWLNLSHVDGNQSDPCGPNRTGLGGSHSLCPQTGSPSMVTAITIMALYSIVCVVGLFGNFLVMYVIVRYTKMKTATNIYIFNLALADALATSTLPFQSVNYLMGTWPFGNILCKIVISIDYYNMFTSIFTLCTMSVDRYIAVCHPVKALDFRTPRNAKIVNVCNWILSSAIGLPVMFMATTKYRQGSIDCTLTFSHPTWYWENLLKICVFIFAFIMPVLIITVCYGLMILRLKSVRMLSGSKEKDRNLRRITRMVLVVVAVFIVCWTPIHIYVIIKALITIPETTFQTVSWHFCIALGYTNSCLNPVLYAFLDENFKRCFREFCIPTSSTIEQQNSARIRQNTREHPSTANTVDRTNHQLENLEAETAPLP
Mu-type opioid receptor (Mus musculus), sequence (P42866 whole entry): as above

In the case of `CC[C@@H]1CN2CC[C@]3(Nc4cccc(OC)c4C3=O)[C@@H]2C[C@@H]1/C(=C\OC)C(=O)OC`, the “Ratio ED50” value (Mus musculus [1]) is reported as 6, the “Ratio ED50” value (Mus musculus [2]) is reported as 3 and the inhibition [3] is reported as “Active”. For the same compound, the ED50 (Mus musculus [4]) was 4.5 mg/kg, the Activity [5] was 15% and the EC50 (Mu-type opioid receptor [6]) was 1.7 nM. For the same compound, the Activity (Mus musculus [7]) was “Active”, the Activity (Mus musculus [8]) was “inactive” and the Activity (Mus musculus [9]) was “inactive”. It also gave an ED50 (Mus musculus [10]) of 1.1 mg/kg, an ED50 (Mus musculus [11]) of 7.5 mg/kg and an ED50 (Mus musculus [12]) of 1.6 mg/kg. The IC50 (Mu-type opioid receptor [13]) was 34 nM, the inhibition (Mu-type opioid receptor [13]) was “Dose-dependent effect” and the Activity [14] was 12. For the same compound, the Activity [15] was “Toxic”, the inhibition [16] was “Active” and the Ki [17] was 3 nM. The ED50 (Mus musculus [18]) was 0.76 mg/kg, the Time [19] was 29 days and the IC50 [20] was 61 nM. The ED50 (Mus musculus [21]) was 0.38 µg, the “Ratio ED50” value (Mus musculus [22]) was <2 and the Emax [23] was 84%. For the same compound, the Activity (Mus musculus [24]) was “Active”, the ED50 (Mus musculus [25]) was 0.99 mg/kg and the “Ratio ED50” value (Mus musculus [26]) was 1.5. The Activity (Mu-type opioid receptor [27]) was “Not Active”, the Time (Mus musculus [28]) was 15 min and the Activity (Mus musculus [29]) was “inactive”. The Activity [30] was “Non-Toxic”.
